Results as given in patent US11000033B2, “Ketone or oxime compound, and herbicide” (NISSAN CHEMICAL CORPORATION, priority 2014, dated 2021).

How the values were obtained:
Assay type in all cases: in vivo
[1] = system: corn; experiment: Test Example 4: effect on crop by soil treatment (symbol c); conditions: application herbicide amount 320 g/ha
How it was run: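 Soil-treatment setup: crop and weed seeds were spot-sown into sterilized diluvial soil, then buried beneath approximately 1.5 cm of it, and the boxes were housed in a 25–30° C. greenhouse.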

[2] = system: soybean; experiment: Test Example 5: effect on crop by foliage application, plastic box (symbol d); conditions: 320 g/ha, 3 weeks after application
How it was run: (§1)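 Soil: sterilized diluvial. Container: plastic box, 21 × 13 cm, 7 cm deep. Sowing: spot-like, ~1.5 cm cover. Growth: greenhouse, 25° C. to 30° C.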

[3] = system: Abutilon theophrasti; experiment: Test Example 4: herbicidal effect by soil treatment (symbol M); conditions: application herbicide amount 320 g/ha
How it was run: (§2)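 Seeds were sown in sterilized diluvial soil, covered with about 1.5 cm of soil, and the soil surface was sprayed with a water-diluted emulsion of the compound at a predetermined rate. Plants grew in a greenhouse at 25° C. to 30° C.; effects were scored visually 3 weeks after application.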

[4] = system: corn; experiment: Test Example 5: effect on crop by foliage application, plastic box (symbol c); conditions: 320 g/ha, 3 weeks after application
How it was run: as §1

[5] = system: Alopecurus myosuroides; experiment: Test Example 5: herbicidal effect by foliage application, plastic box (symbol J); conditions: 320 g/ha, 3 weeks after application
How it was run: (§3)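 Greenhouse foliar test: seedlings at 14 days, grown 25° C. to 30° C. in sterilized diluvial soil; compound applied as an aqueous dilution of an emulsion; response read 3 weeks after spraying.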

[6] = system: Amaranthus retroflexus; experiment: Test Example 5: herbicidal effect by foliage application, plastic box (symbol N); conditions: 320 g/ha, 3 weeks after application
How it was run: as §3

[7] = system: Chenopodium album; experiment: Test Example 4: herbicidal effect by soil treatment (symbol O); conditions: application herbicide amount 320 g/ha
How it was run: as §2

[8] = system: Echinochloa crus-galli var. crus-galli; experiment: Test Example 3: herbicidal effect by foliage application, Wagner pot (symbol H); conditions: application herbicide amount 320 g/ha
How it was run: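 Herbicidal activity was rated three weeks after a foliar spray of diluted emulsion concentrate, applied at a predetermined dose to plants grown for 14 days from seed in waterlogged alluvial soil within a 25–30 °C greenhouse.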

[9] = system: Lolium multiflorum Lam.; experiment: Test Example 5: herbicidal effect by foliage application, plastic box (symbol K); conditions: 320 g/ha, 3 weeks after application
How it was run: as §3

[10] = system: Alopecurus myosuroides; experiment: Test Example 4: herbicidal effect by soil treatment (symbol J); conditions: application herbicide amount 320 g/ha
How it was run: as §2

[11] = system: Chenopodium album; experiment: Test Example 5: herbicidal effect by foliage application, plastic box (symbol O); conditions: 320 g/ha, 3 weeks after application
How it was run: as §3

[12] = system: transplanted rice plant; experiment: Test Example 1: effect on crop, application before weed generation in submerged conditions (symbol a); conditions: application herbicide amount 320 g/ha
How it was run: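 Rice at 2.5 leaf stage transplanted into submerged soil (4 cm depth) sown with three weed species; herbicide applied before weed emergence.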

[13] = system: Veronica persica; experiment: Test Example 5: herbicidal effect by foliage application, plastic box (symbol R); conditions: 320 g/ha, 3 weeks after application
How it was run: as §3

[14] = system: Apera spica-venti; experiment: Test Example 5: herbicidal effect by foliage application, plastic box (symbol L); conditions: 320 g/ha, 3 weeks after application
How it was run: as §3

[15] = system: Echinochloa crus-galli var. crus-galli; experiment: Test Example 5: herbicidal effect by foliage application, plastic box (symbol H); conditions: 320 g/ha, 3 weeks after application
How it was run: as §3

[16] = system: Stellaria media; experiment: Test Example 4: herbicidal effect by soil treatment (symbol P); conditions: application herbicide amount 320 g/ha
How it was run: as §2

Structure (SMILES)	d: soybean, effect on crop (criteria of Test Example 1) [2]	c: corn, effect on crop (criteria of Test Example 1) [4]	J: Alopecurus myosuroides, herbicidal effect (criteria of Test Example 1) [5]	N: Amaranthus retroflexus, herbicidal effect (criteria of Test Example 1) [6]	herbicidal effect on H (Echinochloa crus-galli var. crus-galli), grade 0-5 [8]	K: Lolium multiflorum Lam., herbicidal effect (criteria of Test Example 1) [9]	O: Chenopodium album, herbicidal effect (criteria of Test Example 1) [11]	Effect grade on crop, a: transplanted rice plant [12]	R: Veronica persica, herbicidal effect (criteria of Test Example 1) [13]	L: Apera spica-venti, herbicidal effect (criteria of Test Example 1) [14]	H: Echinochloa crus-galli var. crus-galli, herbicidal effect (criteria of Test Example 1) [15]	Effect on crop grade, c: corn [1]	Herbicidal effect grade, M: Abutilon theophrasti [3]	Herbicidal effect grade, O: Chenopodium album [7]	Herbicidal effect grade, J: Alopecurus myosuroides [10]	Herbicidal effect grade, P: Stellaria media [16]	further results
CON=C(C)CC1CC(OC(=O)N2CCOCC2)=C(c2c(C)cc(-c3ccc(Cl)cc3)cc2OC)C1=O (stereo not shown) [6-078, 2-(4′-chloro-3-methoxy-5-methyl-[1,1′-biphenyl]-4-yl)-4-{2-(methoxyimino)propyl}-3-oxocyclopent-1-ene-1-yl morpholine-4-carboxylate]	0 (Herbicidal ratio of 5% or lower (almost no effect))	5 (Herbicidal ratio of 90% or more (almost completely withered))	5 (Herbicidal ratio of 90% or more (almost completely withered))	0 (Herbicidal ratio of 5% or lower (almost no effect))	5 (Herbicidal ratio of 90% or more (almost completely withered))	4 (Herbicidal ratio of 70% or higher and lower than 90%)	1 (Herbicidal ratio of 5% or higher and lower than 20%)	5 (Herbicidal ratio of 90% or more (almost completely withered))	3 (Herbicidal ratio of 40% or higher and lower than 70%)	5 (Herbicidal ratio of 90% or more (almost completely withered))	5 (Herbicidal ratio of 90% or more (almost completely withered))	–	–	–	–	–	c: corn, effect on crop grade [1]: 0 (Herbicidal ratio of 5% or lower (almost no effect)); M: Abutilon theophrasti, herbicidal effect grade [3]: 1 (Herbicidal ratio of 5% or higher and lower than 20%); O: Chenopodium album, herbicidal effect grade [7]: 0 (Herbicidal ratio of 5% or lower (almost no effect)); J: Alopecurus myosuroides, herbicidal effect grade [10]: 0 (Herbicidal ratio of 5% or lower (almost no effect)); P: Stellaria media, herbicidal effect grade [16]: 0 (Herbicidal ratio of 5% or lower (almost no effect))
CON=C(C)CC1CC(OC(=O)C(C)CSC)=C(c2c(C)cc(-c3ccc(Cl)cc3)cc2C)C1=O (stereo not shown) [6-086]	5 (Herbicidal ratio of 90% or more (almost completely withered))	3 (Herbicidal ratio of 40% or higher and lower than 70%)	5 (Herbicidal ratio of 90% or more (almost completely withered))	0 (Herbicidal ratio of 5% or lower (almost no effect))	5 (Herbicidal ratio of 90% or more (almost completely withered))	5 (Herbicidal ratio of 90% or more (almost completely withered))	5 (Herbicidal ratio of 90% or more (almost completely withered))	5 (Herbicidal ratio of 90% or more (almost completely withered))	5 (Herbicidal ratio of 90% or more (almost completely withered))	5 (Herbicidal ratio of 90% or more (almost completely withered))	5 (Herbicidal ratio of 90% or more (almost completely withered))	0 (Herbicidal ratio of 5% or lower (almost no effect))	0 (Herbicidal ratio of 5% or lower (almost no effect))	3 (Herbicidal ratio of 40% or higher and lower than 70%)	5 (Herbicidal ratio of 90% or more (almost completely withered))	4 (Herbicidal ratio of 70% or higher and lower than 90%)	–
CON=C(C)CC1CC(OC(=O)COc2ccccc2)=C(c2c(C)cc(-c3ccc(Cl)cc3Cl)cc2C)C1=O (stereo not shown) [6-092]	1 (Herbicidal ratio of 5% or higher and lower than 20%)	2 (Herbicidal ratio of 20% or higher and lower than 40%)	5 (Herbicidal ratio of 90% or more (almost completely withered))	0 (Herbicidal ratio of 5% or lower (almost no effect))	5 (Herbicidal ratio of 90% or more (almost completely withered))	5 (Herbicidal ratio of 90% or more (almost completely withered))	5 (Herbicidal ratio of 90% or more (almost completely withered))	0 (Herbicidal ratio of 5% or lower (almost no effect))	4 (Herbicidal ratio of 70% or higher and lower than 90%)	3 (Herbicidal ratio of 40% or higher and lower than 70%)	4 (Herbicidal ratio of 70% or higher and lower than 90%)	0 (Herbicidal ratio of 5% or lower (almost no effect))	0 (Herbicidal ratio of 5% or lower (almost no effect))	0 (Herbicidal ratio of 5% or lower (almost no effect))	3 (Herbicidal ratio of 40% or higher and lower than 70%)	0 (Herbicidal ratio of 5% or lower (almost no effect))	–
COc1ccc(-c2cc(C)c(C3=C(O)CC(CC(C)=O)C3=O)c(C)c2)cc1 (stereo not shown) [7-006]	0 (Herbicidal ratio of 5% or lower (almost no effect))	4 (Herbicidal ratio of 70% or higher and lower than 90%)	3 (Herbicidal ratio of 40% or higher and lower than 70%)	0 (Herbicidal ratio of 5% or lower (almost no effect))	5 (Herbicidal ratio of 90% or more (almost completely withered))	5 (Herbicidal ratio of 90% or more (almost completely withered))	3 (Herbicidal ratio of 40% or higher and lower than 70%)	2 (Herbicidal ratio of 20% or higher and lower than 40%)	0 (Herbicidal ratio of 5% or lower (almost no effect))	4 (Herbicidal ratio of 70% or higher and lower than 90%)	5 (Herbicidal ratio of 90% or more (almost completely withered))	0 (Herbicidal ratio of 5% or lower (almost no effect))	0 (Herbicidal ratio of 5% or lower (almost no effect))	0 (Herbicidal ratio of 5% or lower (almost no effect))	0 (Herbicidal ratio of 5% or lower (almost no effect))	0 (Herbicidal ratio of 5% or lower (almost no effect))	–
